Assay results from patent publication US4705799A, “Aminomethyl oxooxazolidinyl benzenes useful as antibacterial agents” (E. I. Du Pont de Nemours and Company, priority 1985, dated 1987).
Values after ≈ are worked out from the molar mass of the structure shown.

Legend:
Escherichia coli [1] = assay: In vitro broth dilution minimal inhibitory concentration (standard microdilution method); assay type: cell-based; conditions: Escherichia coli; Mueller-Hinton broth; 24-hour; read-out: Microdilution Broth MIC
[2] = tested on: Staphylococcus epidermidis; assay: as above; assay type: cell-based; conditions: 24 h, Mueller-Hinton broth, 24-hour, read-out: Microdilution Broth MIC
Escherichia coli [3] = assay: In vivo efficacy of orally administered compounds in mouse intraperitoneal infections; conditions: 168 h; mouse i.p. Escherichia coli infection; oral; dosed at infection and 4 h post-infection; 7 days; read-out: ED50 (50 percent effective dose)
Staphylococcus aureus [4] = assay: as above; conditions: Staphylococcus aureus, po, 168 h, mouse i.p. Staphylococcus aureus infection; oral; dosed at infection and 4 h post-infection; 7 days; read-out: ED50 (50 percent effective dose)
Escherichia coli [5] = assay: In vivo efficacy of compounds administered subcutaneously in mouse intraperitoneal infections; conditions: sc, 168 h; mouse i.p. Escherichia coli infection; subcutaneous; dosed at infection and 4 h post-infection; 7 days; read-out: ED50 (50 percent effective dose)
Staphylococcus aureus [6] = assay: as above; conditions: sc, 168 h; mouse i.p. Staphylococcus aureus infection; subcutaneous; dosed at infection and 4 h post-infection; 7 days; read-out: ED50 (50 percent effective dose)

Structure (SMILES) | MIC (Escherichia coli [1]) [µg/mL] | MIC [2] [µg/mL] | ED50 (Escherichia coli [3]) [mg/kg] | ED50 (Staphylococcus aureus [4]) [mg/kg] | ED50 (Escherichia coli [5]) [mg/kg] | ED50 (Staphylococcus aureus [6]) [mg/kg]
CC(=O)NCC1CN(c2ccc(C(C)=O)cc2)C(=O)O1 (single isomer, unassigned) [Example 129, (l)-N-[3-(4-Acetylphenyl)-2-oxo-5-oxazolidinylmethyl)acetamide] | 12.5 (≈ 45.2 µM) | 0.4 (≈ 1.45 µM) | 13.6 | 0.7 | 14 | 0.5
CC(=O)NCC1CN(c2ccc(C(C)O)cc2)C(=O)O1 (single isomer, unassigned) [Example 130, (l)-N-[3-[4-(1-Hydroxyethyl)phenyl]-2-oxo-5-oxazolidinylmethyl]acetamide] | 50 (≈ 180 µM) | 3.1 (≈ 11.1 µM) | 17.4 | 2.1 | 26.3 | < 1.3
CC(=O)NCC1CN(c2ccc(C(C)=NNC(C)=O)cc2)C(=O)O1 (single isomer, unassigned) [Example 132, (l)-N-[3-[4-[1-(Acetylhydrazono)ethyl]phenyl]-2-oxo-5-oxazolidinylmethyl]acetamide] | > 200 | 6.2 (≈ 18.7 µM) | 24.7 | < 4.4 | > 120 | 6.9
CCc1ccc(N2CC(CNC(C)=O)OC2=O)cc1 (single isomer, unassigned) [Example 133, (l)-N-[3-(4-Ethylphenyl)-2-oxo-5-oxazolidinylmethyl]acetamide] | > 200 | 1.6 (≈ 6.1 µM) | 17.9 | 3 | 15.2 | 2.2
CC(=O)NCC1CN(c2ccc([N+](=O)[O-])cc2)C(=O)O1 (single isomer, unassigned) [Example 146, (l)-N-[3-(4-Nitrophenyl)-2-oxooxazolidin-5-ylmethyl]acetamide] | 200 (≈ 716 µM) | 2.4 (≈ 8.59 µM) | 29.8 | 2 | 40 | > 13
CC(=O)NCC1CN(c2ccc(S)cc2)C(=O)O1 (single isomer, unassigned) [Example 153, (l)-N-[3-(4-Mercaptophenyl)-2-oxooxazolidin-5-ylmethyl]acetamide] | > 50 | > 50 | 17 | 5.7 | 57.2 | < 13
CSCC(=O)c1ccc(N2CC(CNC(C)=O)OC2=O)cc1 (single isomer, unassigned) [Example 161, (l)-N-[3-[4-(Methylthioacetyl)phenyl]-2-oxo-5-oxazolidinylmethyl]acetamide] | > 200 | 1.6 (≈ 4.96 µM) | > 120 | 10.4 | > 120 | 5.4
CC(=O)NCC1CN(c2ccc(C(C)=NNC(C)=O)cc2)C(=O)O1 (stereo not drawn) [Example 36] | > 200 | 25 (≈ 75.2 µM) | 47.2 | 4.7 | > 120 | 7.4
CC(=O)NCC1CN(c2ccc(C(C)C)cc2)C(=O)O1 (stereo not drawn) [Example 38] | > 200 | 9.4 (≈ 34 µM) | > 120 | 9.1 | 60.4 | 4.8
COC(=O)NCC1CN(c2ccc(C(C)C)cc2)C(=O)O1 (stereo not drawn) [Example 39] | > 200 | 12.5 (≈ 42.8 µM) | > 120 | 6.1 | > 120 | 5.5
CNS(=O)(=O)c1ccc(N2CC(CNC(C)=O)OC2=O)cc1 (stereo not drawn) [Example 46] | > 200 | 12.5 (≈ 38.2 µM) | 62.5 | 15.8 | 91 | > 13
CS(=O)(=O)c1ccc(N2CC(CNC(=O)CCl)OC2=O)cc1 (stereo not drawn) [Example 67] | 2.5 (≈ 7.21 µM) | 3.2 (≈ 9.23 µM) | > 120 | 42.5 | 99 | 18.6
CCCCc1ccc(N2CC(CNC(C)=O)OC2=O)cc1 (stereo not drawn) [Example 81] | > 200 | 6.2 (≈ 21.4 µM) | > 120 | 47.9 | > 120 | 27.9
CCc1ccc(N2CC(CNC(C)=O)OC2=O)cc1 (stereo not drawn) [Example 82] | > 200 | 3.1 (≈ 11.8 µM) | 65.9 | 2.7 | 95.1 | 2
CCc1ccc(N2CC(CNC(=O)OC)OC2=O)cc1 (stereo not drawn) [Example 83] | > 200 | 12.5 (≈ 44.9 µM) | > 120 | 9.6 | > 12 | 6.6
CC(=O)NCC1CN(c2ccc(Br)cc2)C(=O)O1 (stereo not drawn) [Example 86] | > 200 | 6.25 (≈ 20 µM) | > 40 | 6.9 | > 40 | 4.7
CC(=O)NCC1CN(c2ccc(Cl)cc2)C(=O)O1 (stereo not drawn) [Example 87] | > 200 | 100 (≈ 372 µM) | > 120 | 42 | > 120 | 10.5
CC(=O)NCC1CN(c2ccc(F)cc2)C(=O)O1 (stereo not drawn) [Example 88] | > 200 | > 200 | > 120 | 23.6 | > 120 | 21.9
CS(=O)(=O)c1ccc(N2CC(CNC(=O)CCCl)OC2=O)cc1 (stereo not drawn) [Example 94] | 200 (≈ 554 µM) | 18.8 (≈ 52.1 µM) | 76.8 | 30.2 | 46.7 | 18.7
CC(=O)c1ccc(N2CC(CNC(=O)CCCl)OC2=O)cc1 (stereo not drawn) [Example 95] | > 200 | 12.5 (≈ 38.5 µM) | > 120 | 10.9 | 60.7 | 7.7
COC(=O)NCC1CN(c2ccc(S(=O)(=O)N=[N+]=[N-])cc2)C(=O)O1 (stereo not drawn) [Example 117] | > 200 | 200 (≈ 563 µM) | > 120 | 16.1 | > 120 | 7.2
CCC(=O)c1ccc(N2CC(CNC(C)=O)OC2=O)cc1 (stereo not drawn) [Example 134, l-N-[2-oxo-3-[4-(1-oxopropyl)phenyl]-5-oxazolidinylmethyl]acetamide] | 25 (≈ 86.1 µM) | 0.4 (≈ 1.38 µM) | 46.9 | < 4.4 | 42.1 | < 4.4
CC(=O)NCC1CN(c2ccc(C(=O)CCl)cc2)C(=O)O1 (stereo not drawn) [Example 135, l-N-[3-[4-(chloroacetyl)phenyl]-2-oxo-5-oxazolidinylmethyl]acetamide] | 100 (≈ 322 µM) | 0.15 (≈ 0.483 µM) | 100 | < 4.4 | 100 | < 4.4
CCCC(=O)c1ccc(N2CC(CNC(C)=O)OC2=O)cc1 (stereo not drawn) [Example 138, l-N-[2-oxo-3-[4-(1-oxobutyl)phenyl]-5-oxazolidinylmethyl]acetamide] | > 128 | 1 (≈ 3.29 µM) | > 120 | 9.6 | > 120 | 5.1
CC(=O)NCC1CN(c2ccc(C(C)=O)c(C)c2)C(=O)O1 (stereo not drawn) [Example 142] | > 128 | 1 (≈ 3.44 µM) | 52.1 | 1.8 | 52.1 | 1.8
CS(=O)(=O)c1ccc(N2CC(CNC(=O)CN=[N+]=[N-])OC2=O)cc1 (stereo not drawn) [Example 158] | 50 (≈ 141 µM) | 6.3 (≈ 17.8 µM) | 56.5 | 11.4 | 25 | < 13
